# Laboratory results: publication PMC8760490, “Discovery of novel furanylbenzamide inhibitors that target oncogenic tyrosine phosphatase SHP2 in leukemia cells” (The Journal of Biological Chemistry, 2021)
# Read-outs that look alike come from different tables or passages of the source.
# Target: T1, SHP2 catalytic domain (SHP2cat; residues 248–527) (Homo sapiens, UniProt Q06124)
# T1 construct: the SHP2 catalytic domain (SHP2cat; residues 248–527); made in house
# T1 sequence (Q06124 248-527): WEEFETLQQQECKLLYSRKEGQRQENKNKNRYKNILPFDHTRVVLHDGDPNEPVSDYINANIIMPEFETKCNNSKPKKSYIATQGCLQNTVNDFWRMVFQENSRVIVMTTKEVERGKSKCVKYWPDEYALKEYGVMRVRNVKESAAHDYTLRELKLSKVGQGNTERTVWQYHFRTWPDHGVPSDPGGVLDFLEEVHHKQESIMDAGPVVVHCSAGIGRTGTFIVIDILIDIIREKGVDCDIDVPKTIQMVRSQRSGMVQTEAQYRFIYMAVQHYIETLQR
# Test: DiFMUP fluorescence phosphatase inhibition assay, SHP2cat
# Assay type: biochemical
# From the text: To test the synthesized compounds for their potential to inhibit SHP2 activity, a fluorescence intensity-based assay using 6,8-difluoro-4-methylumbelliferyl phosphate (DiFMUP) as the substrate was adapted for three recombinant SHP2 constructs: (1) the SHP2 catalytic domain (SHP2cat; residues 248–527), (2) the full-length SHP2-E76K oncogenic mutant, and (3) the full-length SHP2 WT (SHP2-WT). The recombinant SHP2 proteins were expressed and purified as described previously ([36]). A dually phosphorylated peptide derived from the insulin receptor substrate 1 (IRS-1) served as a surrogate binding protein and was used to activate SHP2-WT ([30], [36]). […] Michaelis–Menten experiments to determine the DiFMUP Michaelis–Menten constant (Km) for each SHP2 construct were performed as described previously ([36]) and yielded the following values: SHP2-WT, Km = 60 μM; SHP2-E76K, Km = 20 μM; and SHP2cat, Km = 20 μM. Relative maximum rates (Vmax) of the DiFMUP reactions expressed as relative fluorescence units per minute (RFU/min) were as follows: SHP2-WT, Vmax = 871 RFU/min; SHP2-E76K, Vmax = 2730 RFU/min; and SHP2cat, Vmax = 2912 RFU/min. IC50 values for each compound were determined from initial rates in 10-point dose–response assays using DiFMUP at a concentration corresponding to its Km value for the respective SHP2 construct. […] Replacements for the benzothiophenone were explored using analog #10.
# Recombinant human full-length SHP2 (1–594) WT and E76K mutants, as well as the SHP2cat (248–527), were expressed and purified as described before ([36], [41]). Recombinant human PTP1B (1–300) and the codon-optimized STEP (280–566) catalytic domains were cloned into PET-15b and expressed as N-His-tagged fusion proteins. For expression, transformed BL21(DE3) cells were grown and induced similar as described for SHP2. Collected cells were resuspended in lysis buffer (25 mM Tris, pH 7.5, 300 mM NaCl, 50 mM imidazole, and 10% glycerol) with 100 mg/l RNaseA and were lysed with two passages using a microfluidizer. The lysate was clarified by centrifugation at 15,000g for 50 min and applied to nickel–nitrilotriacetic acid resin. The column resin was washed, and the PTP1B or STEP protein was eluted in lysis buffer at 300 mM imidazole. The PTP1B or STEP protein was further purified by S75 size-exclusion chromatography in 50 mM Tris, pH 7.5, 50 mM NaCl. The eluted peak fractions were supplemented with tris(2-carboxyethyl)phosphine to 10 mM, concentrated by ultrafiltration, and stored at −80 °C. The purified yield of PTP1B was 33 mg/l cell culture; the yield of STEP was 16 mg/l cell culture.
# SHP2 inhibitors were tested at RT in a 384-well plate format standard phosphatase fluorescence intensity assay using DiFMUP (Invitrogen/Thermo Fisher Scientific) as a substrate and a total reaction volume of 25 μl. SHP2 inhibitors or vehicle (DMSO) were spotted in triplicate into a black Greiner FLUOTRAC 200 384-well microplate (catalog no.: 781076; Greiner) for a 10-point dose–response assay using an Echo 555 Liquid Handler (Labcyte, Inc). PTP working solutions were prepared at a 0.625 nM concentration (for a final concentration of 0.5 nM) in buffer containing 50 mM Bis–Tris, pH 6.0, 50 mM NaCl, 5 mM DTT, and 0.01% Tween-20. Prior to the assay, a dually phosphorylated IRS-1 peptide (625 nM [500 nM final] ([30])) was added to full-length WT SHP2 working solutions and incubated for 20 min. DiFMUP working solutions at 5× final concentration were prepared in 50 mM Bis–Tris, pH 6.0, 50 mM NaCl, and 0.01% Tween-20. About 20 μl of PTP working solution was dispensed into the microplate and incubated with inhibitor for 20 min at RT. […] The reaction was initiated by addition of 5 μl DiFMUP working solutions. Fluorescence intensity was measured in kinetic mode (every minute for 7 or 10 min) using a Tecan Spark Multimode Microplate Reader (Tecan) with an excitation wavelength of 360 nm and an emission wavelength of 460 nm. […]
# [1] = DiFMUP at Km (20 μM), pH 6.0, read-out: SHP2cat, IC50
# [2] = catalytic domain, DiFMUP at Km, read-out: SHP2 IC50 (Table 2)
Compound,IC50 [1],IC50 [2]
"Nc1ccc(NC(=O)c2cc(-c3ccc(/C=C4\Sc5ccccc5C4=O)o3)ccc2O)cc1 [SBI-2130, (Z)-N-(4-Aminophenyl)-2-hydroxy-5-(5-((3-oxobenzo[b]thiophen-2(3H)-ylidene)methyl)furan-2-yl)benzamide]",220 nM,220 nM
"O=C1CCCC1=Cc1ccc(-c2ccc(O)c(C(=O)Nc3ccccc3)c2)o1 [SBI-3192, 2-Hydroxy-5-(5-((2-oxocyclopentylidene)methyl)furan-2-yl)-N-phenylbenzamide]",1100 nM,1100 nM
"N#Cc1cc(-c2ccc(/C=C3\Sc4ccccc4C3=O)o2)ccc1O [SBI-3404, (Z)-2-Hydroxy-5-(5-((3-oxobenzo[b]thiophen-2(3H)-ylidene)methyl)furan-2-yl)benzonitrile]",1400 nM,1400 nM
"O=C1/C(=C/c2ccc(-c3ccc(O)c(-c4nn[nH]n4)c3)o2)Sc2ccccc21 [SBI-3405, (Z)-2-((5-(4-Hydroxy-3-(2H-tetrazol-5-yl)phenyl)furan-2-yl)methylene)benzo[b]thiophen-3(2H)-one]",2000 nM,2000 nM
"O=C(Nc1ccccc1)c1cc(-c2ccc(/C=C3\Sc4ccccc4C3=O)o2)ccc1O [SBI-4668, (Z)-2-Hydroxy-5-(5-((3-oxobenzo[b]thiophen-2(3H)-ylidene)methyl)furan-2-yl)-N-phenylbenzamide]",730 nM,730 nM
